# Experimental data published in PubChem BioAssay (NCI).
#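 Exposure lasted 48 hours, with cells grown in 96-well plates and compounds tested at five concentrations. Abbreviation: GI50, concentration required for 50% inhibition of growth. TGI marks complete inhibition of growth.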
# Tests used:
# Test in all cases: NCI-60 cell line screen, 48 h
# HS 578T breast = test system: HS 578T breast
# CCRF-CEM leukemia = test system: CCRF-CEM leukemia
# SR leukemia = test system: SR leukemia
# NCI-H522 lung = test system: NCI-H522 lung
# ACHN renal = test system: ACHN renal
# HOP-62 NSCLC = test system: HOP-62 NSCLC
# SW-620 colon = test system: SW-620 colon
# SK-OV-3 ovarian = test system: SK-OV-3 ovarian
# SK-MEL-28 melanoma = test system: SK-MEL-28 melanoma
# UO-31 renal = test system: UO-31 renal
Compound,GI50 (HS 578T breast),TGI (HS 578T breast),GI50 (CCRF-CEM leukemia),TGI (CCRF-CEM leukemia),GI50 (SR leukemia),TGI (SR leukemia),GI50 (NCI-H522 lung),TGI (NCI-H522 lung),GI50 (ACHN renal),TGI (ACHN renal),GI50 (HOP-62 NSCLC),TGI (HOP-62 NSCLC),GI50 (SW-620 colon),TGI (SW-620 colon),GI50 (SK-OV-3 ovarian),TGI (SK-OV-3 ovarian),GI50 (SK-MEL-28 melanoma),TGI (SK-MEL-28 melanoma),GI50 (UO-31 renal),TGI (UO-31 renal)
Cc1ccc2c(c1)C(C)Cc1c(ncnc1-n1cnc3cc(C)ccc31)N2C (configuration not stated),0.0459 µM,23 µM,0.0362 µM,17.6 µM,0.0449 µM,13.4 µM,0.026 µM,0.0784 µM,0.0459 µM,12 µM,0.0352 µM,15.6 µM,0.0417 µM,15.9 µM,0.0295 µM,1.09 µM,0.0743 µM,15.8 µM,0.0729 µM,12.3 µM
NC(=O)C1c2ccccc2C=Cc2ccccc21,> 100 µM,> 100 µM,,,> 100 µM,> 100 µM,> 100 µM,> 100 µM,> 100 µM,> 100 µM,> 100 µM,> 100 µM,> 100 µM,> 100 µM,> 100 µM,> 100 µM,> 100 µM,> 100 µM,> 100 µM,> 100 µM
NC(=O)/C(=C\c1ccncc1)c1cccc2ccccc12,,> 100 µM,,> 100 µM,,> 100 µM,,> 100 µM,,> 100 µM,,> 100 µM,,> 100 µM,,> 100 µM,,> 100 µM,,> 100 µM
COc1ccc(CCN2CCCN3C2=Nc2ccccc2S3(=O)=O)cc1,0.577 µM,> 100 µM,0.444 µM,> 100 µM,0.193 µM,> 100 µM,0.278 µM,8.86 µM,0.736 µM,> 100 µM,0.556 µM,> 100 µM,0.381 µM,> 100 µM,0.552 µM,> 100 µM,0.805 µM,> 100 µM,0.913 µM,> 100 µM
CN[C@@H](C)C(=O)N[C@H]1CN(C(=O)CC(C)C)CC[C@H]2CC[C@@H](C(=O)NC(c3ccccc3)c3ccccc3)N2C1=O,> 81.7 µM,> 100 µM,> 100 µM,> 100 µM,> 78 µM,> 100 µM,17.6 µM,> 78.9 µM,> 100 µM,> 100 µM,> 90.9 µM,> 100 µM,> 100 µM,> 100 µM,0.156 µM,1.04 µM,> 100 µM,> 100 µM,> 100 µM,> 100 µM
O=c1[nH]cc(/C=N\Nc2ccccc2)c(=O)[nH]1,,> 100 µM,,> 100 µM,,> 100 µM,,> 100 µM,,> 100 µM,,,,> 100 µM,,> 100 µM,,> 100 µM,,> 100 µM
CNC(=O)c1c(NC(=O)c2ccc(C(F)(F)F)cc2)sc2c1CCC(=O)C2,0.774 µM,13.2 µM,0.155 µM,,0.356 µM,> 100 µM,0.251 µM,1.92 µM,0.322 µM,1.9 µM,2.42 µM,10.9 µM,0.235 µM,1.64 µM,2.26 µM,7.2 µM,0.864 µM,3.67 µM,0.302 µM,1.4 µM
NC(=NCCCC1(c2ccccc2)CCCC1)Nc1ccc(Cl)cc1,2.19 µM,5.03 µM,2.18 µM,6.29 µM,1.71 µM,4.24 µM,1.68 µM,3.32 µM,,,1.69 µM,3.36 µM,1.85 µM,3.85 µM,2.43 µM,5.59 µM,,,1.5 µM,3 µM
N=C(N)/N=C(\N)c1c(-c2cc(O)ccc2O)nc2sccn12,> 100 µM,> 100 µM,10.3 µM,33.7 µM,22.7 µM,87.2 µM,32.4 µM,> 100 µM,20.8 µM,40.5 µM,29.4 µM,84.6 µM,19.9 µM,39.4 µM,> 100 µM,> 100 µM,21.4 µM,46 µM,22.3 µM,47.9 µM
C#CCSc1n[nH]c(-c2ccco2)n1,,> 100 µM,,,,> 100 µM,,> 100 µM,,> 100 µM,,> 100 µM,,> 100 µM,,> 100 µM,,> 100 µM,,32 µM
COC(=O)NC1(NC(=O)OC)NC(=O)c2cc(OC)c(OC)cc2N1,,85.1 µM,,55.3 µM,,> 100 µM,,80 µM,,> 100 µM,,> 100 µM,,> 100 µM,,,,> 100 µM,,> 100 µM
COc1c2c3ccccc3nc-2n(C)c2ccccc12,42 µM,> 100 µM,,,7.1 µM,> 100 µM,49.2 µM,> 100 µM,3.33 µM,19.4 µM,8.61 µM,33.6 µM,7.97 µM,> 100 µM,,,14.7 µM,36.9 µM,29.1 µM,> 100 µM
COc1ccccc1-c1cc(/C=C2\C(=O)Nc3ncc(Br)cc32)cc(Br)c1O,7.67 µM,> 25 µM,9.76 µM,> 25 µM,,,6.1 µM,> 23.3 µM,11.7 µM,> 25 µM,22.7 µM,> 25 µM,19.4 µM,> 25 µM,> 21.3 µM,> 25 µM,14.8 µM,> 25 µM,4.49 µM,> 25 µM
Fc1ccc(-c2nn3c(CNc4ccccc4)nnc3s2)cc1,49.7 µM,> 100 µM,36.2 µM,> 100 µM,> 100 µM,> 100 µM,34.5 µM,> 100 µM,66.8 µM,> 100 µM,33.8 µM,> 100 µM,40.6 µM,> 100 µM,,,42.2 µM,> 100 µM,42.8 µM,> 100 µM
